Among the test systems are A498; COLO 205; DU-145; HCT-116; HCT-15; HT-29; IGROV-1; KM12; MDA-MB-435; MOLT-4; Malme-3M; NCI/ADR-RES; RPMI-8226; SF-268; SK-MEL-5; SNB-19; SR; UACC-62; HOP-92; NCI-H226.
Common to all, as to assay: NCI tumour cell line growth inhibition, 48 h

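Growth conditions: 96-well plates. Treatment: test compound, 48 hours, 5 concentrations. Analysis: linear interpolation between bracketing concentrations; unreached endpoints set to highest concentration. Abbreviation: GI50, concentration required for 50% inhibition of growth.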 Calls of active or inactive are those of the source. Rule as the data show it: active = GI50 up to about 1.1 µM and inactive = higher.

With `COC(=O)C1=CSC2(S1)C(C(=O)OC)=CSc1c2ss/c1=N\c1ccccc1` (stereo not given), the GI50 in the experiment with A498 is 1.64 µM (inactive); in the experiment on COLO 205, 2.16 µM (inactive); in the experiment on DU-145 it was 2.96 µM (inactive); in the experiment on HCT-116 it was 1.83 µM (inactive); in the experiment with HCT-15, 1.74 µM; in the experiment on HT-29, 2.48 µM (inactive). In addition, the GI50 is 2.47 µM (inactive) with IGROV-1; 2.68 µM (inactive) in the experiment with KM12; 1.78 µM (inactive) in the experiment with MDA-MB-435; 0.714 µM (active) in the experiment on MOLT-4; 0.813 µM (active) in the experiment on Malme-3M; 1.69 µM (inactive) in the experiment on NCI/ADR-RES. The GI50 in the experiment on RPMI-8226 is 0.497 µM (active); with SF-268 it was 3.02 µM (inactive); in the experiment with SK-MEL-5, 2.53 µM (inactive); with SNB-19, 2.47 µM (inactive); in the experiment on SR it was 0.605 µM (active); in the experiment with UACC-62, 1.6 µM (inactive).
Take `O=C1NC(N2CCOCC2)=N/C1=C\c1ccco1`: the GI50 in the experiment on COLO 205 is > 100 µM (inactive); in the experiment on DU-145, > 100 µM (inactive); in the experiment on HCT-116, > 100 µM (inactive); in the experiment with HCT-15, more than 100 µM; in the experiment with HOP-92 it was > 100 µM (inactive); in the experiment on HT-29, > 100 µM (inactive). The GI50 in the experiment on IGROV-1, in the experiment on KM12, in the experiment on MDA-MB-435, in the experiment with MOLT-4, in the experiment with NCI-H226 and in the experiment with NCI/ADR-RES was > 100 µM (inactive) each time. Further, the GI50 with RPMI-8226, with SF-268, in the experiment with SK-MEL-5, in the experiment with SNB-19, with SR and in the experiment with UACC-62 was > 100 µM (inactive) in each case.
As to `O=c1[nH]nc(-c2ccccc2)c2[nH]c3c(c12)CCCc1ccccc1-3`, the GI50 with COLO 205 was 9.79 µM (inactive); in the experiment on DU-145, 17.6 µM (inactive); with HCT-116, 13.2 µM (inactive); in the experiment with HCT-15, 2.34 µM; in the experiment on HOP-92 it was 13.3 µM (inactive); in the experiment with HT-29 it was 11.3 µM (inactive). The GI50 in the experiment with IGROV-1 is 12.5 µM (inactive); in the experiment on KM12, 10.2 µM (inactive); in the experiment on MDA-MB-435, 13 µM (inactive); in the experiment with MOLT-4, 10.9 µM (inactive); in the experiment with Malme-3M it was 11.8 µM (inactive); in the experiment on NCI-H226 it was 16.1 µM (inactive). Also, the GI50 with NCI/ADR-RES is 12.4 µM (inactive); with RPMI-8226, 11.5 µM (inactive); in the experiment on SF-268, 24.9 µM (inactive); in the experiment on SK-MEL-5, 12.4 µM (inactive); with SNB-19, 10.7 µM (inactive); with SR, 15.1 µM (inactive). Moreover, in the experiment on UACC-62, the GI50 is 11.7 µM (inactive).
On to `COc1cc(N(Cc2ccc3nc(OC)c(OC)nc3c2)Cc2ccc3nc(OC)c(OC)nc3c2)cc(OC)c1OC`, for which the GI50 was > 50 µM (inactive) in the experiment on COLO 205; > 50 µM (inactive) with DU-145; 33.2 µM (inactive) in the experiment with HCT-116; more than 50 µM in the experiment with HCT-15; > 50 µM (inactive) in the experiment with HT-29; > 50 µM (inactive) in the experiment on KM12. The GI50 with MDA-MB-435, in the experiment on MOLT-4, in the experiment with Malme-3M, in the experiment on NCI-H226, in the experiment on NCI/ADR-RES and in the experiment with RPMI-8226 was > 50 µM (inactive) each time. Also, the GI50 with SF-268 was 32.1 µM (inactive); with SK-MEL-5, > 50 µM (inactive); in the experiment on SNB-19 it was 14.9 µM (inactive); with SR, > 50 µM (inactive); with UACC-62 it was > 50 µM (inactive).
Turning to `Clc1ccc(CNc2nc(Cl)c3nc[nH]c3n2)cc1Cl`, the GI50 in the experiment with A498 was 11.1 µM (inactive); in the experiment with COLO 205 it was 22.6 µM (inactive); with DU-145, 19 µM (inactive); with HCT-116 it was 15.9 µM (inactive); with HCT-15, 27 µM; with HT-29, 26.4 µM (inactive). The GI50 in the experiment with IGROV-1 is 42.7 µM (inactive); in the experiment on KM12, 29.2 µM (inactive); in the experiment on MDA-MB-435 it was 32 µM (inactive); in the experiment with MOLT-4, 33.6 µM (inactive); with Malme-3M it was 26.4 µM (inactive); in the experiment with NCI-H226, 21.9 µM (inactive). The GI50 was 15.8 µM (inactive) with NCI/ADR-RES; 25.4 µM (inactive) with SF-268; 16.7 µM (inactive) in the experiment on SK-MEL-5; 34 µM (inactive) in the experiment with SNB-19; 26.5 µM (inactive) in the experiment with SR; 11.2 µM (inactive) with UACC-62.
For `CC(=O)N1C(c2[nH]c3ccccc3c2-c2ccccc2)CCN1c1ccccc1` (stereo not given), the GI50 with COLO 205 was > 10 µM (inactive); in the experiment on DU-145, > 10 µM (inactive); in the experiment on HCT-116 it was > 10 µM (inactive); in the experiment on HCT-15, more than 10 µM; in the experiment with HT-29, > 10 µM (inactive); in the experiment on IGROV-1, > 10 µM (inactive). In addition, the GI50 with MDA-MB-435, with MOLT-4, in the experiment on Malme-3M, in the experiment on NCI-H226, in the experiment with NCI/ADR-RES and in the experiment on RPMI-8226 was > 10 µM (inactive) in each case. Besides, the GI50 in the experiment on SF-268, with SK-MEL-5, in the experiment on SNB-19 and with SR was > 10 µM (inactive) each time.
In the case of `COc1ccc(NC(=S)c2ccc(CN3CCCCC3)s2)cc1`, the GI50 in the experiment on A498 is 16.2 µM (inactive); in the experiment on COLO 205 it was 16.2 µM (inactive); with DU-145 it was 38.2 µM (inactive); in the experiment with HCT-116 it was 16.9 µM (inactive); in the experiment on HCT-15, 12.8 µM; with HT-29, 5.46 µM (inactive). For the same molecule, the GI50 was 22.8 µM (inactive) with IGROV-1; 17.7 µM (inactive) in the experiment on KM12; 19.6 µM (inactive) in the experiment on MDA-MB-435; 20.1 µM (inactive) in the experiment on MOLT-4; 17.5 µM (inactive) in the experiment on Malme-3M; 23 µM (inactive) in the experiment with NCI/ADR-RES. Moreover, the GI50 was 23.4 µM (inactive) in the experiment on RPMI-8226; 18 µM (inactive) with SF-268; 14.3 µM (inactive) in the experiment with SK-MEL-5; 21.3 µM (inactive) with SNB-19; 16.8 µM (inactive) in the experiment on SR; 17.1 µM (inactive) in the experiment with UACC-62.
For the molecule `Nc1ncnc2c1ncn2C1C=CC(CP(=O)(O)O)C1` (stereo not given), the GI50 in the experiment on COLO 205 was > 100 µM (inactive); in the experiment with DU-145, > 100 µM (inactive); in the experiment on HCT-116 it was > 100 µM (inactive); in the experiment with HCT-15, more than 100 µM; with HT-29 it was > 100 µM (inactive); in the experiment with IGROV-1, > 100 µM (inactive). The GI50 in the experiment with KM12, in the experiment with MDA-MB-435, with MOLT-4, in the experiment with Malme-3M, with NCI-H226 and with NCI/ADR-RES was > 100 µM (inactive) throughout. The GI50 with RPMI-8226, with SF-268, in the experiment on SK-MEL-5, in the experiment on SNB-19, in the experiment on SR and with UACC-62 was > 100 µM (inactive) throughout.
Consider `CC(=O)C12C[C@](C#N)(N3CCCCCC3)C1C=Cc1ccccc12` (stereo not given in full), for which the GI50 was > 100 µM (inactive) in the experiment on COLO 205; > 100 µM (inactive) in the experiment with DU-145; > 100 µM (inactive) in the experiment on HCT-116; more than 100 µM with HCT-15; > 100 µM (inactive) in the experiment with HT-29; > 100 µM (inactive) with IGROV-1. For the same molecule, the GI50 in the experiment on KM12, in the experiment with MDA-MB-435, in the experiment on MOLT-4, in the experiment with NCI-H226, in the experiment with NCI/ADR-RES and with RPMI-8226 was > 100 µM (inactive) in each case. The GI50 in the experiment on SF-268, in the experiment with SK-MEL-5, in the experiment with SNB-19, in the experiment with SR and in the experiment on UACC-62 was > 100 µM (inactive) in each case.
For `COc1c(O)cc2c(c1O)C1O[C@H](CO)C(O)[C@H](O)[C@H]1OC2=O` (stereo not given in full), the GI50 with COLO 205 was > 100 µM (inactive); in the experiment on DU-145, > 100 µM (inactive); in the experiment with HCT-116 it was > 100 µM (inactive); in the experiment on HCT-15, more than 100 µM; in the experiment on HOP-92 it was > 100 µM (inactive); in the experiment with HT-29 it was > 100 µM (inactive). Moreover, the GI50 in the experiment on IGROV-1, with KM12, in the experiment on MDA-MB-435, in the experiment on MOLT-4, with Malme-3M and in the experiment with NCI-H226 was > 100 µM (inactive) each time. The GI50 in the experiment on NCI/ADR-RES, in the experiment with RPMI-8226, in the experiment on SF-268, in the experiment with SK-MEL-5, with SNB-19 and in the experiment on SR was > 100 µM (inactive) in each case.
Turning to `O=C1NCN(c2ccccc2)C12CCN(CC1COc3ccccc3O1)CC2` (stereo not given) [SPIROXATRINE], the GI50 in the experiment on A498 was 71.6 µM (inactive); in the experiment with COLO 205, > 100 µM (inactive); in the experiment with DU-145 it was 77.4 µM (inactive); in the experiment on HCT-116 it was > 100 µM (inactive); in the experiment with HCT-15, more than 100 µM; with HT-29 it was > 100 µM (inactive). For the same molecule, the GI50 in the experiment with IGROV-1 was 27.5 µM (inactive); in the experiment on MDA-MB-435, > 100 µM (inactive); in the experiment with MOLT-4, > 100 µM (inactive); in the experiment on Malme-3M, 40.6 µM (inactive); in the experiment on NCI-H226, 49.9 µM (inactive); in the experiment with NCI/ADR-RES, 47.5 µM (inactive). The GI50 is > 100 µM (inactive) in the experiment on RPMI-8226; 65.2 µM (inactive) with SF-268; > 100 µM (inactive) with SK-MEL-5; 30.3 µM (inactive) in the experiment on SNB-19; > 100 µM (inactive) with SR; > 100 µM (inactive) in the experiment with UACC-62.

These data come from ChEMBL document CHEMBL1201862, “PubChem BioAssay data set” (2004).
